Measurements: ChEMBL document CHEMBL1151886, “Synthesis and SAR of hydroxyethylamine based phenylcarboxyamides as inhibitors of BACE” (Bioorg Med Chem Lett, 2009)

These molecules were tested against T1, Beta-secretase 1 (Homo sapiens, UniProt P56817) (assay: Inhibition of BACE1 in human HEK293 cells overexpressing APP with Swedish mutation assessed as inhibition of amyloid beta 40 production). Conditions: read-out: IC50.
Format: cell-based

T1 sequence (P56817 whole entry): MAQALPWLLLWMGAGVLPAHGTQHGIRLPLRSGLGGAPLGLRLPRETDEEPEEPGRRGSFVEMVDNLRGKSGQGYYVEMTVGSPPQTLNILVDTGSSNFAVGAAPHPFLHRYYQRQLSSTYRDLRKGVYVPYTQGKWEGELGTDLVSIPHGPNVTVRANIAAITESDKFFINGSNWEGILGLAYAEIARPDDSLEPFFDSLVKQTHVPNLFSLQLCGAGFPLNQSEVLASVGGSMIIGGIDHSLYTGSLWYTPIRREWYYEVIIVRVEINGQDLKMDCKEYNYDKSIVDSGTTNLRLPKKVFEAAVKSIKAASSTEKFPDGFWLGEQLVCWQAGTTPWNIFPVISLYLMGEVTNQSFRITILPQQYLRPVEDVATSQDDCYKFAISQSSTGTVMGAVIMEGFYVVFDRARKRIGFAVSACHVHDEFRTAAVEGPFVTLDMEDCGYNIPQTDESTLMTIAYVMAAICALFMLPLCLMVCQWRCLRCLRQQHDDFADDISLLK

Row | IC50 | SMILES
1 | 640 nM | CCCN(CCC)C(=O)c1cc(C(=O)N[C@@H](Cc2cc(F)cc(F)c2)[C@H](O)CNCc2cccc(OC)c2)cc(C(C)N)c1 (stereo partly specified)
2 | 534 nM | CCCN(CCC)C(=O)c1cc(C(=O)N[C@@H](Cc2cc(F)cc(F)c2)[C@H](O)CNCc2cccc(OC)c2)cc(/C(C)=N\OCc2ccccc2)c1
3 | 42 nM | CCCN(CCC)C(=O)c1cc(C(=O)N[C@@H](Cc2cc(F)cc(F)c2)[C@H](O)CNCc2cccc(OC)c2)cc(/C(C)=N\OC)c1

These molecules were tested against T1, Beta-secretase 1 (assay: Binding affinity to BACE assessed as displacement of [3H]BMS-599240). Conditions: read-out: IC50.

Row | IC50 | SMILES
4 | 123 nM | CCCN(CCC)C(=O)c1cc(C(=O)N[C@@H](Cc2cc(F)cc(F)c2)[C@H](O)CNCc2cccc(OC)c2)cc(C(C)N)c1 (stereo partly specified)
5 | 67 nM | CCCN(CCC)C(=O)c1cc(C(=O)N[C@@H](Cc2cc(F)cc(F)c2)[C@H](O)CNCc2cccc(OC)c2)cc(/C(C)=N\OCc2ccccc2)c1
6 | 1 nM | CCCN(CCC)C(=O)c1cc(C(=O)N[C@@H](Cc2cc(F)cc(F)c2)[C@H](O)CNCc2cccc(OC)c2)cc(/C(C)=N\OC)c1
